“Also recorded” adds a separate entry of the source.
What was measured:
FOXO4 = FOXO4 knockdown by lentiviral short hairpins: FOXO4 mRNA (QPCR) and punctate FOXO4 staining after 10Gy XRAY; format: cell-based, human; settings: HCA2 fibroblasts, 8 days after 10Gy XRAY
Procedure: FIG. 1A: 3×10^6 Normal Human IMR90 fibroblasts were plated in 6 cm dishes and the next day exposed to 10Gy ionizing radiation (XRAY) or left untreated. At the indicated time-points protein samples were prepared by collecting the cells in 1× Laemli Sample buffer. The indicated proteins were detected by western blot using antibodies against FOXO4 (#9472, Cell Signaling), FOXO3a (#07-702, Upstate/Millipore) and Tubulin (B-5-1-2, Sigma-Aldrich). FIG. 1B: 10^4 Normal human HCA2 fibroblasts were plated in 96-well plates in triplicate per condition and the next day exposed to 10Gy ionizing radiation (XRAY) or left untreated. At the indicated time-points mRNA and subsequent cDNA samples were collected using the Cells-to-Ct kit from Ambion according to the manufacturer's instructions. Real-time QPCR was subsequently performed using the Universal Probe Library system from Roche with the following primers/probe combinations: For FOXO4: Probe 18, FOXO4-fwd: 5′-[…]-3′, FOXO4-Rev: 5′-[…]-3′. For Tubulin: Probe 58, Tubulin-Fwd: 5′-[…]-3′ and Tubulin-Rev 5′-[…]-3′. Changes in mRNA expression were calculated using the ΔΔCT method. FIG. 1C: 2×10^5 IMR90 fibroblasts were plated on glass coverslips and the next day exposed to 10Gy ionizing radiation (XRAY) or left untreated. […]

A375 melanoma cells = assay: A375-shGFP versus A375-shFOXO4 sensitivity to chemotherapeutic agents (MTS); format: cell-based, human
Procedure: FIG. 12A: 2×10^4 A375-shGFP or A375-shFOXO4-2 cells were plated in triplicate in 96-well plate chambers. The next day the cells were incubated with the indicated concentrations of PLX4032 or left untreated. After 6 days the a CellTiter 96® AQueous One Solution Cell Proliferation Assay (MTS) was performed according to the manufacturer's instructions (Promega) to determine the relative number of cells versus Mock treated A375-shGFP or A375-shFOXO4-2 melanoma cells (Left panel). Additionally, in a separate experiment the cells were refreshed at day 7 with the same dose of PLX4032 and left for another 4 days after which the same procedure was performed. FIG. 12B: Similar experiment as in A), except with the general RAF inhibitor RAF265. FIG. 12C: Similar experiment as in A), except with the MEK inhibitor AZD6244.

[1] = system: BRAFV600E-mutated A375 malignant melanoma cells; assay: Cytochrome C release in shFOXO4-infected A375 cells treated with PLX4032; format: cell-based, human; settings: shFOXO4 versus control hairpin; PLX4032 0.5, 2 and 10 μM
Procedure: FIG. 9B: BRAF^V600E-mutated A375 malignant melanoma cells were infected as in FIG. 2a and selected for 3 days with 1 μg/ml Puromycin. Subsequently 2×10^4 cells were plated in triplicate on glass coverslips in 24-well plate chambers. The next day the cells were incubated with the indicated concentrations of the BRAF^V600E-inhibitor PLX4032 in the presence of 20 μM of the general caspase-inhibitor Q-VD-OPH. After 5 days the cells were processed as in FIG. 2b for Cytochrome C staining and the percentage of cells with Cytochrome C release was quantified.

metastatic melanoma = settings: patients with metastatic melanoma; Bollag 2010, Sosman 2012; cited from earlier work
[2] = system: BRAFV600E-driven melanoma cells such as A375; settings: Sala et al. 2008; cited from earlier work

## 5′-CCAGCTTCAGTCAGCAGTTAT-3′ [shFOXO4-1]
FOXO4
  knockdown of FOXO4 mRNA and reduction in punctate FOXO4 staining: induce knockdown of FOXO4 mRNA and reduction in punctate FOXO4

## 5′-CGTCCACGAAGCAGTTCAAAT-3′ [shFOXO4-2]
FOXO4
  knockdown of FOXO4 mRNA and reduction in punctate FOXO4 staining: induce knockdown of FOXO4 mRNA and reduction in punctate FOXO4

## Cn1cnc2c(F)c(Nc3ccc(Br)cc3Cl)c(C(=O)NOCCO)cc21 [AZD6244]
A375 melanoma cells
  sensitivity of A375-shFOXO4 compared with A375-shGFP cells to the drug: more sensitive

## N.N.[Cl][Pt][Cl] [Cisplatin]
A375 melanoma cells
  sensitivity of A375-shFOXO4 compared with A375-shGFP cells to the drug: more sensitive

## CCCS(=O)(=O)Nc1ccc(F)c(C(=O)c2c[nH]c3ncc(-c4ccc(Cl)cc4)cc23)c1F [PLX4032]
[1]
  sensitivity to PLX4032 on FOXO4 knockdown (Cytochrome C release): strongly sensitized; also recorded: Increased sensitivity
Metastatic melanoma
  tumor-free survival rates: Major improvements in tumor-free survival rates
[2]
  apoptosis: trigger apoptosis
A375 melanoma cells
  sensitivity of A375-shFOXO4 compared with A375-shGFP cells to the drug: more sensitive

## Cn1c(Nc2ccc(C(F)(F)F)cc2)nc2cc(Oc3ccnc(-c4ncc(C(F)(F)F)[nH]4)c3)ccc21 [RAF265]
A375 melanoma cells
  sensitivity of A375-shFOXO4 compared with A375-shGFP cells to the drug: more sensitive
